# Test results published in patent publication US7674609B2, “Culture of Crypthecodinium cohnii and microorganisms derived therefrom” (The University of Hull, priority 2001, dated 2010).
# How the values were obtained:
# Type in all cases: cell-based
# [1] = test system: Crypthecodinium cohnii 30772; assay: Culture of C. cohnii with glucose as main carbon source with propionic acid in the medium (Example 2); settings: propionic acid 1% v/v, glucose 60 g/L
# Experimental: The growth medium used for the third culture contained (initially) propionic acid (1% v/v), glucose (60 g/L—autoclaved separately), yeast extract (7.5 g/L) and sea salts (25 g). The growth medium used for the fourth culture was the same but with the propionic acid omitted. In each case, the pH was 6.5. The microorganism used was Crypthecodinium cohnii 30772. For each of the third and fourth cultures, the Crypthecodinium cohnii was grown in a 5 L fermenter. The cultures were initiated by inoculating 3.5 L of the appropriate growth medium with 350 ml of a 3 day old shaking-flask culture of Crypthecodinium cohnii. The inoculum for the third culture was prepared using the same growth medium as that used in the third culture (i.e., with propionic acid) and the inoculum for the fourth culture was prepared using the same growth medium as that used in the fourth culture (i.e., without propionic acid). Cultures were aerated at 1 volume of air per volume of culture per minute and the dissolved oxygen concentration was maintained above 30% of air saturation by increasing the stirrer speed as required, from an initial speed of 300 rpm. The growth temperature was 27° C. and the pH was maintained at 6.5 by addition of KOH (2 M) and H2SO4 (1 M).
# [2] = test system: Crypthecodinium cohnii (ATCC 30541); assay: Culture of C. cohnii 30541 in acetic acid pH-stat fermenters with propionic acid (Example 3)
# Experimental: The value of including propionic acid in the culture medium was also shown with another strain of Crypthecodinium cohnii (ATCC 30541). This strain was grown on acetic acid in pH-stat fermenters as described in Example 1 with and without the inclusion of propionic acid at 1% of the volume of the initial culture medium. [table]
# [3] = test system: Crypthecodinium cohnii ATCC 30772; assay: Culture of C. cohnii in acetic acid pH-stat fermenter with propionic acid in the medium (Example 1); settings: propionic acid 1% v/v
# Experimental: The growth medium used for the first culture contained (initially) propionic acid (1% v/v), sodium acetate (8 g/L), yeast extract (7.5 g/L) and sea salts (25 g/L). The growth medium used for the second culture was the same but with the propionic acid omitted. Before use, the pH of each growth medium was adjusted to 6.5 by the addition of NaOH and the medium was then autoclaved at 121° C. for 1 hour.
# The first and second cultures used the strain of Crypthecodinium cohnii available from the American Type Culture Collection and identified by the number 30772 (C. cohnii ATCC 30772).
# The apparatus included a 5 L fermenter 10 of known type. The fermenter 10 was provided with a pH electrode 11 that was positioned in the fermenter 10 for monitoring the pH of the growth medium in the fermenter 10. The pH electrode 11 was connected via a control device 12 to a pump 13. The control device 12 was programmed to cause the pump 13 to pump acetic acid (50% v/v) from a reservoir 14 into the fermenter 10 when the pH electrode 11 detected a pH greater than a predetermined value (in this case pH 6.5 for both the first and second cultures).
# If, during the culture, the pH fell below 6.5, the pH was brought back to 6.5 by adding KOH (2M). This was done automatically.
# The fermenter 10 was also provided with a thermometer (not shown) and a heater (not shown) arranged to maintain the growth medium (and the C. cohnii 30772) at a desired temperature within the fermenter 10 (in this case 27° C. for both the first and second cultures).
# The fermenter 10 was also provided with an aerator (not shown) that was connected to a source of air (not shown) for aerating the growth medium within the fermenter 10. An oxygen sensor (not shown) was positioned for measuring dissolved oxygen concentration in the growth medium within the fermenter 10. A stirrer (not shown) was provided for stirring the growth medium (and the C. cohnii 30772). The oxygen sensor was connected to the stirrer by a control device (not shown) for varying the speed of the stirrer in response to the oxygen concentration detected by the oxygen sensor so as to maintain the oxygen concentration at a desired level. For both the first and second cultures the aerator was set to aerate the culture at a rate of 1 volume of air per volume of culture per minute. The control device connected to the oxygen sensor and the stirrer was set so that the dissolved oxygen concentration was maintained above 30% of air saturation (the initial stirrer speed being 300 rpm).
# To start each culture, 3.5 L of the appropriate growth medium was added to the fermenter 10. An inoculum of C. cohnii 30772 in 880 ml medium containing acetic acid/acetate, yeast extract and sea salt was then added to the fermenter (the preparation of the inoculum is described below). The fermenter 10 was then closed and the culture was heated to the desired operating temperature, aerated and stirred as described above.
# In both the first and second cultures, the control device 12 caused the pump 13 to pump acetic acid into the fermenter 10 so as to maintain the pH at 6.5. This process, sometimes referred to as pH-stat operation, is described in detail in WO 01/04338. Briefly, it is believed that the Crypthecodinium cohnii metabolises the acetate in the growth medium (either in the form of acetate or acetic acid) as a carbon source. […]
# During the first and second cultures, samples of the cultures were taken at time intervals. Each sample was analysed to determine dry cell weight. […]
# [4] = 1% propionic acid versus without
# [5] = propionic acid 1%, samples after 140-150 hours growth
# [6] = first culture, acetic acid pH-stat
compound,measurement,setting,value
CCC(=O)O [propionic acid],amount of total lipid produced relative to the fourth culture (without propionic acid),[1]; FIG. 4,greater than twice
same,amount of docosahexaenoic acid produced relative to the fourth culture (without propionic acid),[1]; FIG. 5,greater than twice
same,dry cell weight greater than in the fourth culture (without propionic acid),"[1]; later stages of the culture, FIG. 3",about 20%
same,increase in the amount of docosahexaenoic acid produced in the culture,[2]; [4],about 85%
same,increase in the dry cell weight produced in the culture,[2]; [4],over 60%
same,Cell dry wt,[2]; [5],75 g/L
same,DHA in lipid,[2]; [5],33 % w/w
same,Lipid in cells,[2]; [5],20 % w/w
same,Total DHA produced,[2]; [5],5 g/L
same,amount of DHA produced (overall),[3]; [6],6 to 8 g/L
same,cellular lipid content,[3]; [6],55-65 % of the dry cell weight
same,content of docosahexaenoic acid,[3]; [6],35-40 % of the total lipid
same,"forms of the microorganism present (cysts / swimmers), microscopic observation","[3]; first culture, after 24 hours",only non-motile cysts were present
same,dry cell weight in the first culture (with propionic acid) relative to the second culture (without propionic acid),"[3]; acetic acid/acetate carbon source, later stages of the cultures, FIG. 2",approximately double
